Entries after “also recorded” stand apart in the source; their conditions may differ. Read-outs that look alike come from different tables or passages of the source.

In one test the test system is gB derived peptides. The format is binding, HSV-1.
Another test deals with HSV-1 F. Description: Cell-to-cell spread assay in Vero cell monolayers. It counts as cell-based. As to conditions: 500 nM, 48 h. The method, then:
Vero cells grown to confluency on glass cover slips in 24-weel tissue culture plates are infected for 4 h at 37° C. with a constant virus amount of 400 TCID50/well. One median tissue culture infective dose (1 TCID50) is the amount of a cytopathogenic agent, such as a virus, that will produce a cytopathic effect in 50% of the cell cultures inoculated. The virus inoculum is subsequently removed, the cells washed twice with PBS and further incubated for 2 days at 37° C. in 1 ml DMEM, 2% FCS, Pen/Strep containing an excess of either different anti-HSV antibodies or polyclonal anti-HSV control serum in order to prevent viral spreading via the supernatant Viral antigens of HSV-infected cells are detected with a fluorescence labelled polyclonal goat-anti-HSV-serum (BETHYL Labolatories, Montgomery, Tex. USA, Catalog No. A190-136F, Lot No. A190-136F-2).
Two days after infection spreading of the virus was detected with fluorescence labeled polyclonal goat-anti-HSV serum using a Leica DM IRE2 confocal microscope at 40-fold magnification.
For spreading within a host HSV uses two mechanisms: release of cell-free particles and direct, cell-to-cell spread. […] Viral antigens were detected by staining of HSV-1 infected cell monolayers with FITC-conjugated polyclonal goat-anti-HSV serum (BETHYL, Montgomery, Tex., USA) diluted 1:100 in blocking buffer. […]

For a further test, the system named is HSV-1. Description: Plaque-reduction assay with or without human complement. It counts as cell-based. As to conditions: 2 μg/ml, with or without 10% human complement. Background: In a plaque reduction assay, fewer plaques than in the control indicate reduced infectivity or spread.

“mAb 2c: murine monoclonal IgG2a antibody specific for glycoprotein B of HSV1 and HSV2; VH SEQ ID NO: 9, VL SEQ ID NO: 10”: the “binding strength to duotope” value was “almost saturation of the fluorescence signal intensity” with gB derived peptides (duotope FED-βA-βA-FYGYRE) and “only slightly increased” in the test with gB derived peptides (duotope YSQFMG-βA-FYGYRE versus peptide 172[…]184). Further, the “inhibition of cell-to-cell spread” value in the test on HSV-1 F is “inhibit at a concentration of 500 nM the cell-to-cell spread completely; also recorded: completely abrogated HSV-1 spread”. Moreover, the “complement dependence of HSV neutralization” value with HSV-1 is “neutralize HSV complement-independent”.

(Values after patent publication US9657088B2, “Anti-HSV antibody” (priority 2009, dated 2017).)
